Measured values: patent publication US8329705B2, “Substituted triazolo-pyrazine compounds” (ArQule, Inc., priority 2009, dated 2012)

How the values were obtained:
FGFR2 (N549H) = molecular target: T1, FGFR2 (N549H) (Homo sapiens, UniProt P21802, N549H); test: FGFR2 kinase activity assay (fluorescent ELISA); format: biochemical; conditions: 30 μM compound
T1 construct: purchased Millipore 14-742
Method: A fluorescent ELISA assay was developed to identify and characterize inhibitors of FGFR2 kinase. This heterogeneous assay utilized a biotinylated peptide with a tyrosine motif as a substrate and an anti-phospho-tyrosine antibody to measure phosphorylation of the substrate. The reaction was initiated by adding a test compound, 37 uM Pyk2 substrate (Midwest Biotech, cat. #MBT2383), 12.5 uM ATP (Roche, cat. #11 140 965 001), and 0.5 uM FGFR2 enzyme (Millipore, cat. #14-742) sequentially to a non-binding polypropylene V-well plate. All reagents were in assay buffer consisting of: 50 mM Tris-HCL, 0.02 mg/mL BSA, 10 mM MgCl2, 0.1 mM Na3VO4, 1 mM EGTA, […], 0.01% NP-40, 2 mM DTT, 10% Glycerol. The reaction was incubated for 60 minutes. As the reaction proceeded, FGFR2 phosphorylated tyrosines in the peptide. The reaction mixture was then moved to a blocked streptavidin coated Nunc Maxisorb plate (coated with 100 ng streptavidin from Pierce (cat #15-124) per well) allowing for the capture of the biotinylated peptide. Peptide was captured for 30 minutes at room temperature, the phosphorylation of peptide continues during this phase. The reaction was stopped by washing the Streptavidin plate 6 times with TBST. Phosphorylated peptide was detected by adding anti-phospho tyrosine antibody (purchased from Cell Signaling, cat. #9411, diluted 1:3000), unbound antibody was removed by washing 6 times with TBST. Secondary detection was performed using Alkaline Phosphatase tagged goat anti-mouse antibody (purchased from Pierce, cat. #31320, diluted 1:4000) for one hour. Unbound secondary antibody was removed by washing 6 times with TBST.
The fluorescent readout was initiated by the addition of Promega Attophos substrate (purchased from Promega; Kit catalog number: S1000, dilution=6 mg/10 mL), which when dephosphorylated by Alkaline phosphatase emitted a fluorescent signal of […] when excited by a signal […]. This reading was done on the Perkin Elmer Envision system. […] The signal was directly proportional to the activity of FGFR2 and compound inhibition of FGFR2 was monitored by a decrease in signal.

MDA-MB-231 cancer cells = test: MTS assay, MDA-MB-231 cells; format: cell-based; set-up: concentration or dose not given beside the values
Method: (§1) Cells were maintained at 37° C., 5% CO2 in DMEM media supplemented with 1% fetal bovine serum, penicillin/streptomycin and fungizone (Invitrogen). Cells were seeded into 96-well tissue culture plates at 3000 per well and cultured at 37° C. for 18 hours. Test compounds were dissolved and diluted to 300× in DMSO then diluted 1:40 in DMEM. Cells were incubated with test compounds for 72 hours followed by incubation with tetrazolium compound (3-(4,5-dimethylthiazol-2-yl)-5-(3-carboxymethoxyphenyl)-2-(4-sulfophenyl)-2H-tetrazolium, inner salt; MTS) and the electron coupling reagent, phenazine methosulfate (PMS) for 4 hours. […] The ability of compounds to inhibit cell growth in this assay is correlated with the reduction of dehydrogenase enzyme activity found in metabolically active cells. The measurement of the absorbance of the formazan was assessed using a Victor (Perkin Elmer) microplate reader at 492 nm. The calculated IC50 value is the concentration of the test compound that causes a 50% decrease in the absorbance. Percent inhibition by representative compounds of the present invention in MDA-MB231 and DLD-1 cancer cells is shown in Table 4.

DLD-1 cancer cells = test: MTS assay, DLD-1 cells; format: cell-based; set-up: concentration or dose not given beside the values
Method: as §1

T1 sequence (P21802 22-821 N549H): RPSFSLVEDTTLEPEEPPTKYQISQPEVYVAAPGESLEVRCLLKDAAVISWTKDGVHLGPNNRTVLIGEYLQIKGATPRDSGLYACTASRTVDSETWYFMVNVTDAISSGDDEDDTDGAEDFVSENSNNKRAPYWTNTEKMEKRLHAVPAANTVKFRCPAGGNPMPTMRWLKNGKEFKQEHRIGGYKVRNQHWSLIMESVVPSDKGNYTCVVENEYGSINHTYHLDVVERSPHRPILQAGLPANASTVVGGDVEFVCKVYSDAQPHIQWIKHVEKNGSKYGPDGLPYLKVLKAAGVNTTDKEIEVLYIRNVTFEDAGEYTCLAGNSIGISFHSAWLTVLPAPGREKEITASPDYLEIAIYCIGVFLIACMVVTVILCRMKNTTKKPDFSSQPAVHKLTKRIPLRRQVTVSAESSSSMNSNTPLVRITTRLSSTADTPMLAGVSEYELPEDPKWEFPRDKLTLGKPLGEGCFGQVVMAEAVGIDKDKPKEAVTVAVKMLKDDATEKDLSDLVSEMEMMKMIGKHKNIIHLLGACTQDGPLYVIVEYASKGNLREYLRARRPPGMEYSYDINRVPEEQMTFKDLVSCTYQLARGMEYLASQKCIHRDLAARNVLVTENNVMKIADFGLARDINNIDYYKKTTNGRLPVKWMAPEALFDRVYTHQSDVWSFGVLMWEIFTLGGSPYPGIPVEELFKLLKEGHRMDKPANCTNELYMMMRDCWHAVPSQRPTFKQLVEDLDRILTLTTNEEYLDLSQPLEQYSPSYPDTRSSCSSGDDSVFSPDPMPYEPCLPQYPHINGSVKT

SMILES | inhibition at 30 µM (FGFR2 (N549H)) | MDA-MB-231, MTS, 72 hours (% inhibition) (MDA-MB-231 cancer cells) | DLD-1, MTS, 72 hours (% Inhibition) (DLD-1 cancer cells)
CC(C)OC(=O)Nc1nnc2c(NCc3ccc(C(C)(C)C)cc3)nccn12 [Compound 22, isopropyl {8-[(4-tert-butylbenzyl)amino][1,2,4]triazolo[4,3-a]pyrazin-3-yl}carbamate] | 100% | 99% | 98%
COc1cccc(Nc2nccn3c(NC(=O)OC(C)C)nnc23)c1 [Compound 5] | – | 98% | 96%
Nc1nnc2c(NCCc3ccccc3)nccn12 [Compound 136, N^8-(2-phenylethyl)[1,2,4]triazolo [4,3-a]pyrazine-3,8-diamine] | – | 76% | 97%
COc1ccccc1CNc1nccn2c(NC(=O)OC(C)C)nnc12 [Compound 15, isopropyl {8-[(2-methoxybenzyl)amino][1,2,4]triazolo[4,3-a]pyrazin-3-yl}carbamate] | 51% | 83% | 98%
CC(C)OC(=O)Nc1nnc2c(NCc3cccc(F)c3)nccn12 [Compound 86, isopropyl {8-[(3-fluorobenzyl)amino][1,2,4]triazolo[4,3-a]pyrazin-3-yl}carbamate] | 88.8% | 98% | 97%
Nc1nnc2c(NCCc3ccc(Oc4ccccc4)cc3)nccn12 [Compound 93, N^8-[2-(4-phenoxyphenyl)ethyl][1,2,4]triazolo[4,3-a]pyrazine-3,8-diamine] | 82.9% | 99% | 98%
COc1ccc(CCNc2nccn3c(N)nnc23)cc1 [Compound 117, N^8-[2-(4-methoxyphenyl)ethyl][1,2,4] triazolo[4,3-a]pyrazine-3,8-diamine] | – | 99% | 97%
CC(C)OC(=O)Nc1nnc2c(NCc3cccc(C(F)(F)F)c3)nccn12 [Compound 81, isopropyl (8-{[3-(trifluoromethyl)benzyl]amino}[1,2,4]triazolo[4,3-a]pyrazin-3-yl)carbamate] | 96.9% | 99% | 98%
COc1ccccc1Nc1nccn2c(NC(=O)OC(C)C)nnc12 [Compound 39, isopropyl {8-[(2-methoxyphenyl)amino][1,2,4]triazolo[4,3-a]pyrazin-3-yl}carbamate] | 78.3% | 97% | 97%
CCN(c1ccccc1C)c1nccn2c(NC(=O)OC(C)C)nnc12 [Compound 63, isopropyl {8-[ethyl(2-methylphenyl)amino][1,2,4]triazolo[4,3-a]pyrazin-3-yl}carbamate] | 75.7% | 76% | 98%
Cc1ccnc(N(Cc2ccccc2)c2nccn3c(NC(=O)OC(C)C)nnc23)c1 [Compound 8, Isopropyl {8-[benzyl(4-methylpyridin-2-yl)amino][1,2,4]triazolo[4,3-a]pyrazin-3-yl}carbamate] | – | 94% | 99%
CC(C)OC(=O)Nc1nnc2c(N3CCCCC3)nccn12 [Compound 59, isopropyl (8-piperidin-1-yl[1,2,4]triazolo[4,3-a]pyrazin-3-yl)carbamate] | 82.5% | 53% | 48%
CC(C)OC(=O)Nc1nnc2c(NCCC3CCCN3C)nccn12 (stereo not shown) [Compound 21, Isopropyl (8-{[2-(1-methylpyrrolidin-2-yl)ethyl]amino}[1,2,4]triazolo[4,3-a]pyrazin-3-yl)carbamate] | – | 69% | 58%
CC(C)OC(=O)Nc1nnc2c(N(C)c3ccccn3)nccn12 [Compound 53, isopropyl {8-[methyl(pyridin-2-yl)amino][1,2,4]triazolo[4,3-a]pyrazin-3-yl}carbamate] | 68.1% | 99% | 96%
CCN(c1cc(O)ccc1C)c1nccn2c(NC(=O)OC(C)C)nnc12 [Compound 64, isopropyl {8-[ethyl(5-hydroxy-2-methylphenyl)amino][1,2,4]triazolo[4,3-a]pyrazin-3-yl}carbamate] | 57.2% | 51% | 26%
CCc1ccc(CCNc2nccn3c(NC(=O)OC(C)C)nnc23)cc1 [Compound 62, isopropyl (8-{[2-(4-ethylphenyl)ethyl]amino}[1,2,4]triazolo[4,3-a]pyrazin-3-yl)carbamate] | 74.2% | 78% | 93%
COc1ccccc1CCNc1nccn2c(NC(=O)OC(C)C)nnc12 [Compound 58, isopropyl (8-{[2-(2-methoxyphenyl)ethyl]amino}[1,2,4]triazolo[4,3-a]pyrazin-3-yl)carbamate] | 80.6% | 59% | 10%
Cc1ccc(CCNc2nccn3c(N)nnc23)cc1 [Compound 90, N^8-[2-(4-methylphenyl)ethyl][1,2,4]triazolo[4,3-a]pyrazine-3,8-diamine] | 60.8% | 81% | 89%
CC(C)OC(=O)Nc1nnc2c(N3CCC(n4c(=O)[nH]c5cc(Cl)ccc54)CC3)nccn12 [Compound 82, isopropyl {8-[4-(5-chloro-2-oxo-2,3-dihydro-1H-benzimidazol-1-yl)piperidin-1-yl][1,2,4]triazolo[4,3-a]pyrazin-3-yl}carbamate] | 65.2% | 92% | 97%
CC(C)OC(=O)Nc1nnc2c(NCc3ccccc3Br)nccn12 [Compound 80, isopropyl {8-[(2-bromobenzyl)amino][1,2,4]triazolo[4,3-a]pyrazin-3-yl}carbamate] | 51% | – | –
CC(C)OC(=O)Nc1nnc2c(NCc3ccccc3C(F)(F)F)nccn12 [Compound 48, isopropyl (8-{[2-(trifluoromethyl)benzyl]amino}[1,2,4]triazolo[4,3-a]pyrazin-3-yl)carbamate] | 87% | – | –
Cc1ccc(N(C)c2nccn3c(NC(=O)OC(C)C)nnc23)cc1 [Compound 69, isopropyl {8-[methyl(4-methylphenyl)amino][1,2,4]triazolo[4,3-a]pyrazin-3-yl}carbamate] | 52.8% | – | –
Cc1cccc(Nc2nccn3c(N)nnc23)c1 [Compound 118, N^8-(3-methylphenyl)[1,2,4]triazolo[4,3-a]pyrazine-3,8-diamine] | 50.4% | – | –
CC(C)OC(=O)Nc1nnc2c(NCc3ccc(C(F)(F)F)cc3)nccn12 [Compound 17, isopropyl (8-{[4-(trifluoromethyl)benzyl]amino}[1,2,4]triazolo[4,3-a]pyrazin-3-yl)carbamate] | 68.8% | – | –
Nc1nnc2c(Nc3ccccc3F)nccn12 [Compound 121, N^8-(2-fluorophenyl)[1,2,4]triazolo[4,3-a]pyrazine-3,8-diamine] | 65.7% | – | –
